What was measured:
Plasmodium falciparum [1] = assay: Antiplasmodial activity against Plasmodium falciparum 3D7 infected in O positive erythrocytes assessed as inhibition of parasite growth at 10 uM by FACS-based assay; assay type: functional
Plasmodium falciparum [2] = assay: Antiplasmodial activity against Plasmodium falciparum 3D7 infected in O positive erythrocytes assessed as inhibition of parasite growth at 50 uM by FACS-based assay; assay type: functional
Plasmodium falciparum [3] = assay: Antiplasmodial activity against Plasmodium falciparum 3D7 infected in O positive erythrocytes assessed as inhibition of parasite growth at 1 uM by FACS-based assay; assay type: functional
Plasmodium falciparum [4] = assay: Antiplasmodial activity against Plasmodium falciparum 3D7 infected in O positive erythrocytes assessed as inhibition of parasite growth at 30 uM by FACS-based assay; assay type: functional
Plasmodium falciparum [5] = assay: Antiplasmodial activity against Plasmodium falciparum 3D7 infected in O positive erythrocytes assessed as inhibition of parasite growth at 500 nM by FACS-based assay; assay type: functional
Plasmodium falciparum [6] = assay: Antiplasmodial activity against Plasmodium falciparum 3D7 infected in O positive erythrocytes assessed as parasitemia at 50 uM after 24 hrs by FACS-based assay (reference value: 1.670%); assay type: functional
Plasmodium falciparum [7] = assay: Antiplasmodial activity against Plasmodium falciparum 3D7 infected in O positive erythrocytes assessed as inhibition of parasite growth at 40 uM by FACS-based assay; assay type: functional
Plasmodium falciparum [8] = assay: Antiplasmodial activity against Plasmodium falciparum 3D7 infected in O positive erythrocytes assessed as parasitemia at 50 uM after 36 hrs by FACS-based assay (reference value: 1.617%); assay type: functional
Plasmodium falciparum [9] = assay: Antiplasmodial activity against Plasmodium falciparum 3D7 infected in O positive erythrocytes assessed as parasitemia at 50 uM after 48 hrs by FACS-based assay (reference value: 3.484%); assay type: functional
Plasmodium falciparum [10] = assay: Antiplasmodial activity against Plasmodium falciparum 3D7 infected in O positive erythrocytes assessed as inhibition of parasite growth at 20 uM by FACS-based assay; assay type: functional
HepG2 [11] = assay: Cytotoxicity against human HepG2 cells at 100 uM after 24 hrs by MTT colorimetric assay; assay type: cell-based; conditions: hepg2, 24 h
HepG2 [12] = assay: Cytotoxicity against human HepG2 cells at 10 uM after 24 hrs by MTT colorimetric assay; assay type: cell-based; conditions: hepg2, 24 h
HepG2 [13] = assay: Cytotoxicity against human HepG2 cells at 1 uM after 24 hrs by MTT colorimetric assay; assay type: cell-based; conditions: hepg2, 24 h

SMILES | inhibition at 10 µM (Plasmodium falciparum [1]) [%] | inhibition at 50 µM (Plasmodium falciparum [2]) [%] | inhibition at 1 µM (Plasmodium falciparum [3]) [%] | inhibition at 30 µM (Plasmodium falciparum [4]) [%] | inhibition at 0.5 µM (Plasmodium falciparum [5]) [%] | Activity (Plasmodium falciparum [6]) [%] | inhibition at 40 µM (Plasmodium falciparum [7]) [%] | Activity (Plasmodium falciparum [8]) [%] | Activity (Plasmodium falciparum [9]) [%] | inhibition at 20 µM (Plasmodium falciparum [10]) [%] | Activity (HepG2 [11]) [%] | Activity (HepG2 [12]) [%] | Activity (HepG2 [13]) [%]
C[C@]12CCC(=O)N1[C@H](CO)Cc1ccccc12 | 5.67 | 19.1 | – | – | – | – | – | – | – | – | – | – | –
CN(C)C[C@@H]1Cc2ccccc2[C@@]2(C)CCC(=O)N12 | 1.92 | 12.7 | – | – | – | – | – | – | – | – | – | – | –
CCOC(=O)C1C[C@]2(C)c3ccccc3C[C@@H](CN(C)C)N2C1=O (stereo not given in full) | 7.19 | 74.5 | – | – | – | – | – | – | – | – | – | – | –
CCOC(=O)[C@]1(c2ccc([N+](=O)[O-])cc2[N+](=O)[O-])C[C@]2(C)c3ccccc3C[C@@H](CN(C)C)N2C1=O | 71.6 | 89.6 | 0 | 48.9 | 0 | 1.737 | 61.5 | 1.217 | 1.283 | 21.1 | – | – | –
CCOC(=O)[C@@]1(c2ccc([N+](=O)[O-])cc2[N+](=O)[O-])C[C@]2(C)c3ccccc3C[C@@H](CN(C)C)N2C1=O | 0.385 | 91.5 | 5.77 | 52.9 | 0 | 1.421 | 66.5 | 1.571 | 0.9355 | 48.1 | – | – | –
CN(C)C[C@@H]1Cc2ccccc2[C@@]2(C)C[C@]3(C(=O)Nc4cc(N)ccc43)C(=O)N12 | 6.54 | 82.3 | 2.88 | 53.9 | 0 | – | 62.5 | – | – | 34.6 | -36 | 5 | -23
CN(C)C[C@@H]1Cc2ccccc2[C@@]2(C)C[C@@]3(C(=O)Nc4cc(N)ccc43)C(=O)N12 | 5.38 | 10.1 | – | – | – | – | – | – | – | – | -39 | -6 | -52
CN(C)C[C@@H]1Cc2ccccc2[C@@]2(C)C[C@]3(C(=O)Nc4ccccc43)C(=O)N12 | 30.1 | 59.7 | 1.92 | 48.1 | 0 | – | 51.9 | – | – | 44.2 | -29 | 1 | -54
CN(C)C[C@@H]1Cc2ccccc2[C@@]2(C)C[C@@]3(C(=O)Nc4ccccc43)C(=O)N12 | 14.8 | 64.6 | 2.64 | 52.4 | 0.721 | – | 59.1 | – | – | 37 | -4 | -4 | -7
C=CCC1(CC=C)C[C@]2(C)c3ccccc3C[C@@H](CO)N2C1=O | 2.27 | 3.1 | – | – | – | – | – | – | – | – | – | – | –
C[C@]12CC3(CC=CC3)C(=O)N1[C@H](CO)Cc1ccccc12 | 1.8 | 2.13 | – | – | – | 0.7444 | – | 1.161 | 0.9149 | – | -155 | -24 | -5
C[C@]12CC3(CCCC3)C(=O)N1[C@H](CO)Cc1ccccc12 | 0.971 | 1.53 | – | – | – | 1.024 | – | 1.407 | 1.06 | – | 10 | -15 | -63
C[C@]12C[C@@]3(C(=O)NCC3c3ccccc3)C(=O)N1[C@H](CO)Cc1ccccc12 (stereo not given in full) | – | – | – | – | – | 1.209 | – | 1.255 | 1.058 | – | – | – | –
C[C@]12C[C@]3(C(=O)NCC3c3ccccc3)C(=O)N1[C@H](CO)Cc1ccccc12 (stereo not given in full) | – | – | – | – | – | – | – | – | – | – | -41 | -19 | -29
COC(=O)C1(C(C[N+](=O)[O-])c2ccccc2)C[C@]2(C)c3ccccc3C[C@@H](CO)N2C1=O (mixture of isomers) | 1.21 | 1.9 | – | – | – | – | – | – | – | – | -55 | -3 | -45

From ChEMBL document CHEMBL3576858, “A natural product based DOS library of hybrid systems” (Eur J Med Chem, 2015)
